Measured values as given in patent US8084479B2, “Thiazole compounds and methods of use” (Amgen Inc., priority 2006, dated 2011).
Where a name gives a salt, the structure may show the parent alone.

These compounds were tested against PKBα (Homo sapiens, UniProt P31749) (assay: PKB kinase assay (P33-labeled ATP, peptide substrate, filter plate)). Details: PKBα enzyme (full length or kinase domain with pleckstrin domain deleted).
Format: biochemical
From the text: The kinase assay for evaluating PKB activity comprises active PKB enzymes, a PKB specific substrate, and P^33-labeled ATP. […] The phosphorylated substrate was captured by a phosphocellulose membrane filter plate (MLLIPORE) and measured by a Wallac Microbeta liquid scintillation counter (Perkin Elmer).

PKBα, sequence (P31749 118-480 limits assumed): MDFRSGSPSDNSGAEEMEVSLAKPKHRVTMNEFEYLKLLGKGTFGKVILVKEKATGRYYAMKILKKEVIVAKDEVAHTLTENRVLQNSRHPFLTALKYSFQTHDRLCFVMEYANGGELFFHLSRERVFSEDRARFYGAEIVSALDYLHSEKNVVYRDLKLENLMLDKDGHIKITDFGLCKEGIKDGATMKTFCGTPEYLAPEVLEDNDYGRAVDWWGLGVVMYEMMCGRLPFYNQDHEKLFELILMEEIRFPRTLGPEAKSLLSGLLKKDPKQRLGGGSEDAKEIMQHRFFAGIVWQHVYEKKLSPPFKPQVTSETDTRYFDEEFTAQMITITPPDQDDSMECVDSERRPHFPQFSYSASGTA

`NC(CNc1ncc(-c2ccc3[nH]c(=O)oc3c2)s1)Cc1ccc(C(F)(F)F)c(F)c1` (stereo not drawn) [Example 181, 6-(2-(2-amino-3-(3-fluoro-4-(trifluoromethyl)phenyl)propylamino)thiazol-5-yl)benzo[d]oxazol-2(3H)-one] and `NC(CNc1ncc(-c2ccc3c(c2)CC(=O)N3)s1)Cc1ccc(C(F)(F)F)c(F)c1` (stereo not drawn) [Example 179, 5-(2-(-2-amino-3-(3-fluoro-4-(trifluoromethyl)phenyl)propylamino)thiazol-5-yl)indolin-2-one] cannot be ordered by IC50: < 0.05 µM for the first, < 0.05 µM for the second.

Compared with `CC#Cc1nc(NC[C@@H](N)Cc2ccc(C(F)(F)F)cc2)sc1-c1ccc2cnccc2c1` [Example 143, N—((S)-2-amino-3-(4-(trifluoromethyl)phenyl)propyl)-5-(isoquinolin-6-yl)-4-(prop-1-ynyl)thiazol-2-amine], `NC(=O)c1nc(NC[C@@H](N)Cc2ccc(C(F)(F)F)cc2)sc1-c1ccc2cnccc2c1` [Example 121, 2-((S)-2-amino-3-(4-(trifluoromethyl)phenyl)propylamino)-5-(isoquinolin-6-yl)thiazole-4-carboxamide] is higher in IC50: < 0.05 µM for the first, 1 to 10 µM for the second. The first is the more potent here.

`N[C@H](CNc1ncc(-c2ccc3c(c2)CC(=O)N3)s1)Cc1ccc(OCCCO)cc1` [Example 95, 5-(2-((S)-2-Amino-3-(4-(3-hydroxypropoxy)phenyl)propylamino)-thiazol-5-yl)indolin-2-one] and `N[C@H](CNc1ncc(-c2ccc3c(c2)CC(=O)N3)s1)Cc1ccc(OCCCCl)cc1` [Example 94, 5-(2-((S)-2-Amino-3-(4-(3-chloropropoxy)phenyl)propylamino)thiazol-5-yl)indolin-2-one] fall in the same range of IC50: 1 to 10 µM for the first, 1 to 10 µM for the second.

`COc1ccc(C[C@H](N)CNc2ncc(-c3ccc4c(c3)CC(=O)N4)s2)cc1` [Example 67, 5-(2-((S)-2-amino-3-(4-methoxyphenyl)propylamino)thiazol-5-yl)indolin-2-one] and `COc1ccc(CC(N)CNc2ncc(-c3ccc4c(c3)CC(=O)N4)s2)cc1F` (stereo not drawn) [Example 130, 5-(2-(2-Amino-3-(3-fluoro-4-methoxyphenyl)propylamino)thiazol-5-yl)indolin-2-one] fall in the same range of IC50: 0.05 to 1 µM for the first, 0.05 to 1 µM for the second.

First: CCC[C@@H](c1ccc(C(F)(F)F)cc1)[C@H](N)CNc1ncc(-c2ccc3c(c2)CC(=O)N3)s1 [Example 156, 5-(2-((2S,3S)-2-amino-3-(4-(trifluoromethyl)phenyl)hexylamino)thiazol-5-yl)indolin-2-one]
Second: C[C@@H](c1ccc(C(F)(F)F)cc1)[C@H](N)CNc1ncc(-c2ccc3c(c2)CC(=O)N3)s1 [Example 92, 5-(2-((2S,3S)-2-Amino-3-(4-(trifluoromethyl)phenyl)butylamino)thiazol-5-yl)indolin-2-one methane sulfonic acid salt]
The IC50 of the first is higher: 0.05 to 1 µM for the first, < 0.05 µM for the second. The second is the more potent here.

Compared with `NC(=O)c1ccc(-c2cnc(NC[C@@H](N)Cc3ccc(C(F)(F)F)cc3)s2)cc1` [Example 49, (S)-4-(2-(2-amino-3-(4-(trifluoromethyl)phenyl)propylamino)thiazol-5-yl)benzamide], `Nc1n[nH]c2ccc(-c3cnc(NC[C@@H](N)Cc4ccc(C(F)(F)F)cc4)s3)cc12` [Example 50, 5-(2-((S)-2-amino-3-(4-(trifluoromethyl)phenyl)propylamino)thiazol-5-yl)-1H-indazol-3-amine] is lower in IC50: 1 to 10 µM for the first, 0.05 to 1 µM for the second.

`N[C@H](CNc1nc(-c2cnco2)c(-c2ccc3cnccc3c2)s1)Cc1ccc(C(F)(F)F)cc1` [Example 118, N—((S)-2-Amino-3-(4-(trifluoromethyl)phenyl)propyl)-5-(isoquinolin-6-yl)-4-(oxazol-5-yl)thiazol-2-amine] and `N[C@H](CNc1nc(-c2ccc(F)cc2)c(-c2ccc3cnccc3c2)s1)Cc1ccc(C(F)(F)F)cc1` [Example 102, N—((S)-2-Amino-3-(4-(trifluoromethyl)phenyl)propyl)-4-(4-fluorophenyl)-5-(isoquinolin-6-yl)thiazol-2-amine] fall in the same range of IC50: 0.05 to 1 µM for the first, 0.05 to 1 µM for the second.

`C[C@@H](c1ccc(C(F)(F)F)cc1)[C@H](N)CNc1ncc(-c2ccc3cnccc3c2)s1` [Example 110, N-((2S,3S)-2-Amino-3-(4-(trifluoromethyl)phenyl)butyl)-5-(isoquinolin-6-yl)thiazol-2-amine] and `N[C@H](CNc1ncc(-c2ccc3cnccc3c2)s1)Cc1ccc(C(F)(F)F)c(F)c1` [Example 83, N—((S)-2-Amino-3-(3-fluoro-4-(trifluoromethyl)phenyl)propyl)-5-(isoquinolin-6-yl)thiazol-2-amine] cannot be ordered by IC50: < 0.05 µM for the first, < 0.05 µM for the second.

First: N[C@H](CNc1ncc(-c2ccc3c(c2)CNC3=O)s1)Cc1ccc(Cl)s1 [Example 239, 3,5-(2-((S)-2-amino-3-(5-chlorothiophen-2-yl)propylamino)thiazol-5-yl)isoindolin-1-one]
Second: COc1cc(C[C@H](N)CNc2ncc(-c3ccc4c(c3)CNC4=O)s2)cnc1C(F)(F)F [Example 238, 5-(2-((S)-2-amino-3-(5-methoxy-6-(trifluoromethyl)pyridin-3-yl)propylamino)thiazol-5-yl)isoindolin-1-one]
The IC50 of the first is higher: 1 to 10 µM for the first, 0.05 to 1 µM for the second.

First: N[C@H](CNc1ncc(-c2ccc3cnncc3c2)s1)Cc1ccc(C(F)(F)F)cc1 [Example 64, N—((S)-2-amino-3-(4-(trifluoromethyl)phenyl)propyl)-5-(phthalazin-6-yl)thiazol-2-amine]
Second: N[C@H](CNc1ncc(-c2ccc3cn[nH]c(=O)c3c2)s1)Cc1ccc(C(F)(F)F)cc1 [Example 252, 7-(2-((S)-2-amino-3-(4-(trifluoromethyl)phenyl)propylamino)thiazol-5-yl)phthalazin-1 (211)-one]
The IC50 of the first is lower: 0.05 to 1 µM for the first, 1 to 10 µM for the second.

`N[C@H](CNc1ncc(-c2ccc3[nH]c(=O)sc3c2)s1)Cc1c[nH]c2ccccc12` [Example 35, 6-(2-((S)-2-amino-3-(1H-indol-3-yl)propylamino)thiazol-5-yl)benzo[d]thiazol-2(3H)-one] and `COc1ccc(CC(N)CNc2ncc(-c3ccc4cnccc4c3)s2)cc1F` (stereo not drawn) [Example 131, N-(2-Amino-3-(3-fluoro-4-methoxyphenyl)propyl)-5-(isoquinolin-6-yl)thiazol-2-amine] fall in the same range of IC50: 0.05 to 1 µM for the first, 0.05 to 1 µM for the second.

First: N[C@H](CNc1nc(-c2ccc(F)c(F)c2)c(-c2ccc3cnccc3c2)s1)Cc1ccc(C(F)(F)F)cc1 [Example 101, N—((S)-2-Amino-3-(4-(trifluoromethyl)phenyl)propyl)-4-(3,4-difluorophenyl)-5-(isoquinolin-6-yl)thiazol-2-amine]
Second: N[C@H](CNc1nc(C2CCCO2)c(-c2ccc3cnccc3c2)s1)Cc1ccc(C(F)(F)F)cc1 (stereo partly drawn) [Example 198, N—((S)-2-Amino-3-(4-(trifluoromethyl)phenyl)propyl)-5-(isoquinolin-6-yl)-4-(tetrahydrofuran-2-yl)thiazol-2-amine]
The IC50 of the first is higher: 0.05 to 1 µM for the first, < 0.05 µM for the second. The second is the more potent here.

Compared with `COCc1nc(NC[C@@H](N)Cc2ccc(C(F)(F)F)cc2)sc1-c1ccc2[nH]c(=O)n(C)c2c1` [Example 58, 6-(2-((S)-2-amino-3-(4-(trifluoromethyl)phenyl)propylamino)-4-(methoxymethyl)thiazol-5-yl)-1-methyl-1H-benzo[d]imidazol-2(3H)-one], `COCc1nc(NC[C@@H](N)Cc2ccc(C(F)(F)F)cc2)sc1-c1ccc2c(c1)CC(=O)N2` [Example 69, 5-(2-((S)-2-amino-3-(4-(trifluoromethyl)phenyl)propylamino)-4-(methoxymethyl)thiazol-5-yl)indolin-2-one] is lower in IC50: 0.05 to 1 µM for the first, < 0.05 µM for the second. The second is the more potent here.

In the case of `COc1cc(C[C@H](N)CNc2ncc(-c3ccc4c(c3)CC(=O)N4)s2)cnc1C(F)(F)F` [Example 174, 5-(2-((S)-2-amino-3-(5-methoxy-6-(trifluoromethyl)pyridin-3-yl)propylamino)thiazol-5-yl)indolin-2-one], the IC50 is reported as 0.05 to 1 µM.
